Assays:
CHK2(h) = CHK2(h) (Homo sapiens, UniProt O96017); assay: Protein kinase inhibition assay; assay type: biochemical; details: read-out: percent residual activity of CHK2(h)
Experimental: (§1) Certain compounds were tested for activity in protein kinase inhibition assays. All substrates were dissolved and diluted to working stocks in de-ionized water, apart from histone H1 (10× working stock in 20 mM MOPS pH 7.0), PDKtide (10× working stock in 50 mM Tris pH 7.0) ATF2 (which is typically stored at a 20× working stock in 50 mM Tris pH 7.5, 150 mM NaCl, 0.1 mM EGTA, 0.03% Brij-35, 50% glycerol, 1 mM benzamidine, 0.2 mM PMSF and 0.1% R-mercaptoethanol), KKLNRTLSFAEPG (SEQ ID NO:203) and RRRLSFAEPG (SEQ ID NO:204) (50 mM HEPES pH 7.4) and GGEEEEYFELVKKKK (SEQ ID NO:205) (20 mM MOPS pH 7.0). All kinases were pre-diluted to a 10× working concentration prior to addition into the assay. The composition of the dilution buffer for each kinase is detailed below.
In a final reaction volume of 25 μl, CHK2 (h) (5-10 mU) is incubated with 8 mM MOPS pH 7.0, 0.2 mM EDTA, 200 μM […] (SEQ ID NO:213), 10 mM MgAcetate and [gamma-33P-ATP] (specific activity approx. 500 cpm/pmol, concentration as required). The reaction is initiated by the addition of the MgATP mix. After incubation for 40 minutes at room temperature, the reaction is stopped by the addition of 5 μl of a 3% phosphoric acid solution. 10 μl of the reaction is then spotted onto a P30 filtermat and washed three times for 5 minutes in 75 mM phosphoric acid and once in methanol prior to drying and scintillation counting.

FGFR1(h) = FGFR1(h) (Homo sapiens, UniProt P11362); assay: Protein kinase inhibition assay; assay type: biochemical; details: read-out: percent residual activity of FGFR1(h)
Experimental: as §1
In a final reaction volume of 25 μl, FGFR1 (h) (5-10 mU) is incubated with 8 mM MOPS pH 7.0, 0.2 mM EDTA, 250 μM KKKSPGEYVNIEFG (SEQ ID NO:207), 10 mM MgAcetate and [y-33P-ATP] (specific activity approx. 500 cpm/pmol, concentration as required). The reaction is initiated by the addition of the MGATP mix. After incubation for 40 minutes at room temperature, the reaction is stopped by the addition of 5 μl of a 3% phosphoric acid solution. 10 μl of the reaction is then spotted onto a P30 filtermat and washed three times for 5 minutes in 75 mM phosphoric acid and once in methanol prior to drying and scintillation counting.

Fyn(h) = Fyn(h) (Homo sapiens, UniProt P06241); assay: Protein kinase inhibition assay; assay type: biochemical; details: read-out: percent residual activity of Fyn(h)
Experimental: as §1
In a final reaction volume of 25 μl, Fyn (h) (5-10 mU) is incubated with 50 mM Tris pH 7.5, 0.1 mM EGTA, 0.1 mM Na3VO4, 250 μM KVEKIGEGTYGVVYK (SEQ ID NO:220) (Cdc2 peptide), 10 mM MgAcetate and [gamma-33P-ATP] (specific activity approx. 500 cpm/pmol, concentration as required). The reaction is initiated by the addition of the MgATP mix. After incubation for 40 minutes at room temperature, the reaction is stopped by the addition of 5 μl of a 3% phosphoric acid solution. […]

GSK3β(h) = GSK3β(h) (Homo sapiens, UniProt P49841); assay: Protein kinase inhibition assay; assay type: biochemical; details: read-out: percent residual activity of GSK3β(h)
Experimental: as §1
In a final reaction volume of 25 μl, GSK3β (h) (5-10 mU) is incubated with 8 mM MOPS pH 7.0, 0.2 mM EDTA, 20 μM […](p)EDEEE (SEQ ID NO:221) (phospho GS2 peptide), 10 mM MgAcetate and [gamma-33P-ATP] (specific activity approx. 500 cpm/pmol, concentration as required). The reaction is initiated by the addition of the MgATP mix. After incubation for 40 minutes at room temperature, the reaction is stopped by the addition of 5 μl of a 3% phosphoric acid solution. […]

Plk3(h) = Plk3(h) (Homo sapiens, UniProt Q9H4B4); assay: Protein kinase inhibition assay; assay type: biochemical; details: read-out: percent residual activity of Plk3(h)
Experimental: as §1
In a final reaction volume of 25 μl, Plk3 (h) (5-10 mU) is incubated with 8 mM MOPS pH 7.0, 0.2 mM EDTA, 2 mg/ml casein, 10 mM MgAcetate and [gamma-33P-ATP] (specific activity approx. 500 cpm/pmol, concentration as required). The reaction is initiated by the addition of the MgATP mix. After incubation for 40 minutes at room temperature, the reaction is stopped by the addition of 5 μl of a 3% phosphoric acid solution. 10 μl of the reaction is then spotted onto a P30 filtermat and washed three times for 5 minutes in 75 mM phosphoric acid and once in methanol prior to drying and scintillation counting.

HCT116 cells = assay: DNA synthesis (BrdU-ELISA); assay type: cell-based; details: for A-1 a concentration at which many of the cells were dead
Experimental: Effects of compound A-1 and compound B-1 on DNA synthesis, RNA synthesis and protein synthesis were determined in HCT116 cells. HCT116 cells were plated overnight at 100,000 cells per mL. Next day cells were treated with increasing amounts of either compound A-1 or compound B-1 followed by one hour incubation with BrdU label (from a BrdU Cell proliferation Assay Kit, Calbiochem) to monitor DNA synthesis; […] of ^3H-uridine to monitor total RNA synthesis; […] of ^3H-methionine to monitor protein synthesis or plain media to monitor RNA Polymerase II-dependent RNA synthesis. DNA synthesis was assessed using a BrdU-ELISA (BrdU Cell proliferation Assay Kit, Calbiochem). To measure total RNA synthesis, total RNA from treated cells was isolated with a RNease kit (QIAGEN), levels of total RNA were assessed with Ribogreen reagent (Invitrogen) and the newly synthesized tritiated RNA was measured in a scintillation Counter (Perkin Elmer). To measure effects on protein synthesis, cells were lysed in a RIPA buffer, and total protein was precipitated with 10% TCA on a glass-filters. Newly synthesized tritiated protein was measured in a scintillation Counter (Perkin Elmer). Effects of drugs on […] RNA synthesis were assessed by monitoring levels of a c-myc mRNA, which has a relatively short half-life of approximately 30 minutes, by Taqman qRT-PCR (ABI).

Sequence of CHK2(h) (O96017 whole entry): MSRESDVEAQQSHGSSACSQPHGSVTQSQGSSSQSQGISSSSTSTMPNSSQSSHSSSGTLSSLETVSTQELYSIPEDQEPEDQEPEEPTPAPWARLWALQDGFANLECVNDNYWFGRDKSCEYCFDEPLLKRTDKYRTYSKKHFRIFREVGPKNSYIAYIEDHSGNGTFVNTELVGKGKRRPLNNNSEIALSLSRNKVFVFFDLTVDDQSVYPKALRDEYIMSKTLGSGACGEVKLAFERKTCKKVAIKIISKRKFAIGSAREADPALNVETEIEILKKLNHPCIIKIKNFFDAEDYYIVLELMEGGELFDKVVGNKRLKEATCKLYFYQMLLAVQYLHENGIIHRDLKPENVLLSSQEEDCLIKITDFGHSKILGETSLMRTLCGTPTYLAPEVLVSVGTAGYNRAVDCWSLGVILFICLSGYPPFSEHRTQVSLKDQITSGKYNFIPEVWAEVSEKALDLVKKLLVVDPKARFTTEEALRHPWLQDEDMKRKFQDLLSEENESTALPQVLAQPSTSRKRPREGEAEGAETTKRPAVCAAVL
Sequence of Fyn(h) (P06241 whole entry): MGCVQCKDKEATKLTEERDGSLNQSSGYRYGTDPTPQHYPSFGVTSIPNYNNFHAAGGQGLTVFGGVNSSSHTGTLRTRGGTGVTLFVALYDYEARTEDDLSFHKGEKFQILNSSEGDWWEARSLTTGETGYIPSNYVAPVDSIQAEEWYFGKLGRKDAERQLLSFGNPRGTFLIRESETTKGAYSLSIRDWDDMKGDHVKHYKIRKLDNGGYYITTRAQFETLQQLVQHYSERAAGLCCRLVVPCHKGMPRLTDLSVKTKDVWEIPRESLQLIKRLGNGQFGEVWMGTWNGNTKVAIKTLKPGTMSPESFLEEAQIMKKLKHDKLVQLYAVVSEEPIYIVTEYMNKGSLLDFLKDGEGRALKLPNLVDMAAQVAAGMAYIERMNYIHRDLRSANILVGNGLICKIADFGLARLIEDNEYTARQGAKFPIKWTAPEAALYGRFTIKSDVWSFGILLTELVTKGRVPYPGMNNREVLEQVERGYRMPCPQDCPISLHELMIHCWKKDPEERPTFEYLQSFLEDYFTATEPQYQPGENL
Sequence of FGFR1(h) (P11362 22-822): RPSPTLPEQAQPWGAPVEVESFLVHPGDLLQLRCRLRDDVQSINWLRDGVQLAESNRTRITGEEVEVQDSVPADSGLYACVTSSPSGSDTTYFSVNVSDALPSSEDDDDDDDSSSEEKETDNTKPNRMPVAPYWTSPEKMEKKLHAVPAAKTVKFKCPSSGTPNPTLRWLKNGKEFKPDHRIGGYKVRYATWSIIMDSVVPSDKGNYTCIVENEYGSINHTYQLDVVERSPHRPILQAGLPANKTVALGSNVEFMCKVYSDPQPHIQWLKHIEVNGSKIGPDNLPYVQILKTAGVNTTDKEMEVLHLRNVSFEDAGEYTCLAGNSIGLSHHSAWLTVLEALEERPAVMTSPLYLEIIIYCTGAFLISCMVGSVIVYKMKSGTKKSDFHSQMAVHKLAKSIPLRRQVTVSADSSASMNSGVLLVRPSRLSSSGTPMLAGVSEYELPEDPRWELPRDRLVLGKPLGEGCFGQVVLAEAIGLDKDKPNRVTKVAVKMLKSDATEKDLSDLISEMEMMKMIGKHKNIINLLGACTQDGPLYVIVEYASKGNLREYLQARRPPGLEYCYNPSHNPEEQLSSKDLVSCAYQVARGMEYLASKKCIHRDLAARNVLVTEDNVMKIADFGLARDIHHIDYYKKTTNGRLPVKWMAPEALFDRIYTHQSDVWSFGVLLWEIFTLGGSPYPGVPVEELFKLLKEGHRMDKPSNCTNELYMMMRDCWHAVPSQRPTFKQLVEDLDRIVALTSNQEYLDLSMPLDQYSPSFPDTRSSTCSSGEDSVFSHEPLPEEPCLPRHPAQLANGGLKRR
Sequence of GSK3β(h) (P49841 whole entry): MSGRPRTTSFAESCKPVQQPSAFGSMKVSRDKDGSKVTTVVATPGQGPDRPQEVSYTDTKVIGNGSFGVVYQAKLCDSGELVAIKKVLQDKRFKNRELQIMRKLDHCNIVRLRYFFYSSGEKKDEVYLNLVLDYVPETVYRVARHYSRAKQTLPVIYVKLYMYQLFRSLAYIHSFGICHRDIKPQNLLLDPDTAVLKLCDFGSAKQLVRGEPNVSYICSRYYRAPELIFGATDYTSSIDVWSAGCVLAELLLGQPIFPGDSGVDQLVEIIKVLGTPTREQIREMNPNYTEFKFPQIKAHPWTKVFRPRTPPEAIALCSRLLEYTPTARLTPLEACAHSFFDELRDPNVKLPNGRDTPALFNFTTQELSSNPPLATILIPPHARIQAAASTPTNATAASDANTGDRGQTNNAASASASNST
Sequence of Plk3(h) (Q9H4B4 whole entry): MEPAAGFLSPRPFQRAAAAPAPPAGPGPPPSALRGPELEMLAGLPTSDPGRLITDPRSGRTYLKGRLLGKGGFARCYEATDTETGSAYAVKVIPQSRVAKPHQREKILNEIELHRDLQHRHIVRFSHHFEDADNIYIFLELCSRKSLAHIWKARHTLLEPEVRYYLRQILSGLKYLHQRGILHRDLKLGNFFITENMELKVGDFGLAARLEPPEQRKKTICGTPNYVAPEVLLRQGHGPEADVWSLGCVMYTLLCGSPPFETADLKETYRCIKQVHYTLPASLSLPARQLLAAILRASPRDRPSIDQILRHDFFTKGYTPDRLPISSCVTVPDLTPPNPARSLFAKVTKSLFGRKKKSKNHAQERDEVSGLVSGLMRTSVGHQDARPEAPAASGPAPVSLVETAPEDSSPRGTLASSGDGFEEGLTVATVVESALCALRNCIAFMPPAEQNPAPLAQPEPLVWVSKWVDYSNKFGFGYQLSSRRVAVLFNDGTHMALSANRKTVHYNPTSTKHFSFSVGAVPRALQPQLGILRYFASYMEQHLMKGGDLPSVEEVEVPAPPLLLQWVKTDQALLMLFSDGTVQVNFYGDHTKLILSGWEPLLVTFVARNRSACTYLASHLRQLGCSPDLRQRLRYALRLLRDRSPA

Structure (SMILES)	remaining activity at 2.5 µM (CHK2(h))	remaining activity at 2.5 µM (FGFR1(h))	remaining activity at 2.5 µM (Fyn(h))	remaining activity at 2.5 µM (GSK3β(h))	remaining activity at 2.5 µM (Plk3(h))	concentration that significantly reduced DNA synthesis (HCT116 cells)
CN1CCCC1CCNC(=O)c1cn2c3c(c(N4CCC(c5cnccn5)C4)c(F)cc3c1=O)Oc1cc3ccccc3cc1-2 (stereo not drawn) [Compound A-1]	62%	84%	97%	135%	92%	10 µM
CC(=O)N1CCN(c2ccc3c(=O)c(C(=O)NCCN4CCCC4)c4n(C)c5ccccc5n4c3n2)CC1 [Compound B-1]	99%	118%	85%	76%	86%	30 µM

— US20070117770A1, “Human ribosomal DNA (rDNA) and ribosomal RNA (rRNA) nucleic acids and uses thereof” (Cylene Pharmaceuticals, Inc., priority 2005, published 2007)
